How the values were obtained:
[1] = 1H NMR titration with NBu4SH (HS^− binding); details: 10% DMSO-d6/CD3CN; for selectivity for HS^− over Cl^−: 1H NMR titration data
Experimental: To investigate whether HS^− is a suitable anionic guest for compounds 1-3, we titrated NBu4SH into 0.5-1.0 mM solution of each host in 10% DMSO-d6/CD3CN and monitored the titrations by ^1H NMR spectroscopy. […] For example, upon addition of HS^− to a 0.988 mM solution of 1, the aryl CHa shifted from 7.99 to 9.24 ppm, and the NHb and NHc urea protons shift downfield from 7.94 and 8.92 to 8.63 and 11.18 ppm, respectively. […] We also confirmed that the observed changes in the NMR spectra upon HS^− addition were not merely due to deprotonation of the urea NH groups. […] Titration data of HS^− with the host fit to simple 1:1 binding isotherm models, and a new, upfield-shifted peak appears for bound hydrosulfide.
(§1) The higher selectivity is likely due to the pyridine lone pair acting as a hydrogen bond acceptor, which provides an additional stabilizing interaction for HS^− and a destabilizing interaction for Cl^−. The phenyl core of host 1 donates a hydrogen bond to both anionic guests, resulting in decreased selectivity for hydrosulfide, even if this CH hydrogen bond is an important component to the high overall binding energy.

[2] = 1H NMR comparison titration with NBu4Cl (Cl^− binding); details: 10% DMSO-d6/CD3CN
Source text: as §1

[3] = UV-Vis titration with NBu4SH in MeCN (HS^− binding); details: for HS^− binding constant: no DMSO co-solvent, 10 μM host
Experimental: (§2) To further investigate the difference in anion selectivity, binding constants were also measured at lower concentrations by UV-Vis spectroscopy in MeCN; the data are summarized in Table 1.
We expected that removal of the DMSO co-solvent would increase the observed binding affinities since acetonitrile is a slightly less competitive solvent (especially as a hydrogen bond acceptor).

[4] = UV-Vis titration with NBu4Cl in MeCN (Cl^− binding)
Experimental: as §2

[5] = 13C{1H} NMR check of alkyne reactivity toward HS^−; type: physicochemical; details: 2.3 mM host, 10 equivalents of HS^−
[6] = Reversibility of HS^− binding (NBu4SH then Zn(OAc)2, 1H NMR); details: hydrogen-bond binding; for 1: 1.0 mM in 10% DMSO-d6/CD3CN, 2 equiv NBu4SH, 4 equiv Zn(OAc)2, 5 more equiv NBu4SH

| SMILES | HS^− ΔG [1] [kcal/mol] | selectivity for HS^− over Cl^− [1] [fold] | Cl^− ΔG [2] [kcal/mol] | HS^− ΔG [3] [kcal/mol] | HS^− binding constant ([3]; UV-Vis) | Cl^− ΔG [4] [kcal/mol] | selectivity HS^−:Cl^− ([3]; UV-Vis) | reactivity of host alkynes toward HS^− [5] | reversibility of HS^− binding [6] |
| --- | --- | --- | --- | --- | --- | --- | --- | --- | --- |
| COc1ccc(NC(=O)Nc2ccc(C(C)(C)C)cc2C#Cc2cccc(C#Cc3cc(C(C)(C)C)ccc3NC(=O)Nc3ccc(OC)cc3)n2)cc1 [Host 2] | -4.15 | 6 | -3.19 | -5.86 | ~25,000 M^−1 | -4.35 |  |  |  |
| CC(C)(C)c1ccc(NC(=O)Nc2ccccc2)c(C#Cc2cccc(C#Cc3cc(C(C)(C)C)ccc3NC(=O)Nc3ccccc3)n2)c1 [Host 3] | -4.25 | 6 | -3.19 | -6.07 | ~25,000 M^−1 | -4.20 |  |  |  |
| COc1ccc(NC(=O)Nc2ccc(C(C)(C)C)cc2C#Cc2cccc(C#Cc3cc(C(C)(C)C)ccc3NC(=O)Nc3ccc(OC)cc3)c2)cc1 [Host 1] | -5.05 | 2.8 | -4.43 | -6.76 | 90,300 M^−1 | -6.18 | remained similar to the 10% DMSO-d6/CD3CN system | alkynes were unreactive toward HS^− | confirming the reversibility of binding |
